Laboratory results published in the supplement of paper PMC10307832.

What was measured:
Test in all cases: relative viability (nuclei count vs DMSO), 5 days (fraction); higher = more cells survive
[1] = compound: C/C(=N\NC(=S)N1CCC1)/C2=CC=CC=N2
Method in brief: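 Viability here means nuclei in treated wells divided by nuclei in vehicle wells, reported as the median across plates. Only plates with control CV below 25% and at least one doubling passed. Lung cancer cell lines in 1536-well plates were exposed to five √10-spaced library-drug doses for 5 days and counted from 4× Hoechst images in MetaXpress.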

[2] = compound: C/C(=N\NC(=S)N1CCC1)/C2=CC=CC=N2 + Cc1cc(Nc2cc(N3CCN(C)CC3)nc(Sc3ccc(NC(=O)C4CC4)cc3)n2)n[nH]1 [Tozasertib] (partner 0.1 µM)
Method in brief: (§1)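 One day after seeding in 1536-well plates, lung cancer cell lines were dosed by pin tool. Dosing was either single-drug or a fixed anchor-drug dose plus five library-drug doses (not always all listed) in √10 steps. After 5 days, nuclei were stained in one fix-and-stain step and counted on 4× images, and relative viability is the nuclei count of treated wells over that of vehicle wells, given as the median of duplicate plates.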

[3] = compound: C/C(=N\NC(=S)N1CCC1)/C2=CC=CC=N2 + CC(=O)Nc1cccc(-n2c(=O)n(C3CC3)c(=O)c3c(Nc4ccc(I)cc4F)n(C)c(=O)c(C)c32)c1 [Trametinib] (partner 0.02 µM)
Method in brief: as §1

[4] = compound: C/C(=N\NC(=S)N1CCC1)/C2=CC=CC=N2 + NC(=O)Nc1cc(-c2cccc(F)c2)sc1C(=O)N[C@H]1CCCNC1 [AZD7762] (partner 0.2 µM)
Method in brief: as §1

Row | Cell Line | relative viability ([1]; 0.05 µM) | relative viability ([1]; 0.1581 µM) | relative viability ([1]; 0.5 µM) | relative viability ([1]; 1.581 µM) | relative viability ([1]; 5 µM) | relative viability ([2]; first compound 0.05 µM) | relative viability ([2]; first compound 0.1581 µM) | relative viability ([2]; first compound 0.5 µM) | relative viability ([2]; first compound 1.581 µM) | relative viability ([2]; first compound 5 µM) | relative viability ([3]; first compound 0.05 µM) | relative viability ([3]; first compound 0.1581 µM) | relative viability ([3]; first compound 0.5 µM) | relative viability ([3]; first compound 1.581 µM) | relative viability ([3]; first compound 5 µM) | relative viability ([4]; first compound 0.05 µM) | relative viability ([4]; first compound 0.1581 µM) | relative viability ([4]; first compound 0.5 µM) | relative viability ([4]; first compound 1.581 µM) | relative viability ([4]; first compound 5 µM)
1 | H3255 | 0.316 | 0.331 | 0.273 | 0.254 | 0.274 | 0.331 | 0.167 | 0.288 | 0.193 | 0.232 | 0.29 | 0.304 | 0.258 | 0.295 | 0.325 | 0.302 | 0.308 | 0.286 | 0.244 | 0.237
2 | EPLC-272H | 0.163 | 0.161 | 0.124 | 0.0926 | 0.136 | 0.0738 | 0.0936 | 0.118 | 0.0848 | 0.114 | 0.121 | 0.114 | 0.114 | 0.0558 | 0.0892 | 0.106 | 0.104 | 0.106 | 0.0639 | 0.114
3 | PC-3 [JPC-3] | 0.473 | 0.459 | 0.358 | 0.309 | 0.231 | 0.612 | 0.474 | 0.3 | 0.281 | 0.241 | 0.402 | 0.409 | 0.318 | 0.357 | 0.342 | 0.317 | 0.384 | 0.307 | 0.243 | 0.234
4 | NCI-H1793 | 0.181 | 0.215 | 0.176 | 0.16 | 0.168 | 0.164 | 0.209 | 0.152 | 0.136 | 0.126 | 0.308 | 0.188 | 0.166 | 0.142 | 0.179 | 0.129 | 0.199 | 0.104 | 0.116 | 0.142
5 | EKVX | 0.129 | 0.138 | 0.118 | 0.153 | 0.161 | 0.131 | 0.108 | 0.101 | 0.103 | 0.12 | 0.104 | 0.124 | 0.114 | 0.151 | 0.136 | 0.106 | 0.115 | 0.128 | 0.14 | 0.143
6 | ChaGo-K-1 | 0.204 | 0.227 | 0.2 | 0.18 | 0.186 | 0.141 | 0.154 | 0.17 | 0.151 | 0.168 | 0.147 | 0.391 | 0.15 | 0.133 | 0.152 | 0.177 | 0.175 | 0.154 | 0.154 | 0.154
7 | NCI-H23 | 0.17 | 0.196 | 0.187 | 0.154 | 0.172 | 0.122 | 0.172 | 0.119 | 0.112 | 0.133 | 0.119 | 0.137 | 0.121 | 0.0972 | 0.128 | 0.0952 | 0.131 | 0.124 | 0.096 | 0.131
8 | EMC-BAC-2 | 0.215 | 0.237 | 0.219 | 0.189 | 0.207 | 0.176 | 0.187 | 0.147 | 0.151 | 0.167 | 0.293 | 0.282 | 0.246 | 0.2 | 0.231 | 0.252 | 0.259 | 0.241 | 0.176 | 0.216
9 | LOU-NH91 | 0.5 | 0.572 | 0.553 | 0.42 | 0.464 | 0.38 | 0.411 | 0.366 | 0.313 | 0.367 | 0.632 | 0.6 | 0.583 | 0.512 | 0.452 | 0.46 | 0.548 | 0.479 | 0.294 | 0.428
10 | LU99A | 0.161 | 0.209 | 0.162 | 0.145 | 0.182 | 0.155 | 0.164 | 0.164 | 0.152 | 0.165 | 0.186 | 0.405 | 0.183 | 0.152 | 0.146 | 0.153 | 0.12 | 0.125 | 0.107 | 0.14
11 | NCI-H1395 | 0.423 | 0.41 | 0.336 | 0.344 | 0.383 | 0.389 | 0.347 | 0.359 | 0.34 | 0.328 | 0.425 | 0.388 | 0.327 | 0.381 | 0.389 | 0.287 | 0.326 | 0.402 | 0.35 | 0.406
12 | NCI-H460 | 0.0678 | 0.0619 | 0.0798 | 0.0529 | 0.0177 | 0.0816 | 0.0449 | 0.0431 | 0.0348 | 0.0095 | 0.0177 | 0.0199 | 0.0221 | 0.0121 | 0.0173 | 0.0608 | 0.0607 | 0.0479 | 0.0377 | 0.0347
13 | 201T | 0.432 | 0.443 | 0.353 | 0.345 | 0.309 | 0.424 | 0.445 | 0.368 | 0.292 | 0.296 | 0.575 | 0.713 | 0.327 | 0.407 | 0.283 | 0.287 | 0.285 | 0.273 | 0.211 | 0.233
14 | NCI-H1944 | 0.263 | 0.179 | 0.19 | 0.161 | 0.151 | 0.248 | 0.181 | 0.127 | 0.0988 | 0.107 | 0.32 | 0.392 | 0.144 | 0.147 | 0.152 | 0.227 | 0.169 | 0.145 | 0.102 | 0.129
15 | NCI-H2405 | 0.294 | 0.296 | 0.288 | 0.274 | 0.283 | 0.24 | 0.286 | 0.266 | 0.239 | 0.253 | 0.236 | 0.278 | 0.24 | 0.239 | 0.3 | 0.215 | 0.245 | 0.253 | 0.186 | 0.23
16 | NCI-H1703 | 0.0684 | 0.0887 | 0.112 | 0.126 | 0.161 |  |  |  |  |  |  |  |  |  |  | 0.0509 | 0.0548 | 0.0472 | 0.114 | 0.102
